# Measurements from the supplement of paper PMC10307832.
# Columns and labels:
# Test in all cases: relative viability (nuclei count vs DMSO), 5 days (fraction); higher = more cells survive
# UMC-11 = system: UMC-11
# Outline: (§1)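 A single step with final 0.05% Triton X-100, 1% formaldehyde and 1 ug/ml Hoechst fixed the cells and stained nuclei 5 days after treatment. Lung cancer cell lines in 1536-well plates had been treated by pin tool the day after seeding with one drug alone or a fixed anchor-drug dose plus five library-drug doses (not always all listed) in √10 steps, and nuclei were counted on 4× images. Relative viability is the ratio of nuclei in treated wells to nuclei in vehicle wells, taken as the median of duplicate plates.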
# NCI-H1975 = system: NCI-H1975
# Outline: as §1
# NCI-H2087 = system: NCI-H2087
# Outline: as §1
# NCI-H2009 = system: NCI-H2009
# Outline: as §1
# H3255 = system: H3255
# Outline: as §1
# NCI-H2085 = system: NCI-H2085
# Outline: as §1
# NCI-H23 = system: NCI-H23
# Outline: as §1
# HCC-827 = system: HCC-827
# Outline: as §1
# LXF-289 = system: LXF-289
# Outline: as §1
# PC-3 [JPC-3] = system: PC-3 [JPC-3]
# Outline: as §1
# NCI-H1437 = system: NCI-H1437
# Outline: as §1
# LC-2-ad = system: LC-2-ad
# Outline: as §1
# LCLC-103H = system: LCLC-103H
# Outline: as §1
# NCI-H661 = system: NCI-H661
# Outline: as §1
# NCI-H2342 = system: NCI-H2342
# Outline: as §1
# COR-L23 = system: COR-L23
# Outline: as §1
# NCI-H2228 = system: NCI-H2228
# Outline: as §1
# ABC-1 = system: ABC-1
# Outline: as §1
# HCC-366 = system: HCC-366
# Outline: as §1
# SK-MES-1 = system: SK-MES-1
# Outline: as §1
# PC-14 = system: PC-14
# Outline: as §1
# HCC-15 = system: HCC-15
# Outline: as §1
# NCI-H1666 = system: NCI-H1666
# Outline: as §1
smiles,measurement,setting,value
CN1CCN(CCOc2cc(OC3CCOCC3)c3c(Nc4c(Cl)ccc5c4OCO5)ncnc3c2)CC1 [Saracatinib] + N=C(N)NC(=N)NCCc1ccccc1 [Phenformin] (partner 250 µM),relative viability,UMC-11; first compound 0.02 µM,0.341
same,relative viability,UMC-11; first compound 0.6325 µM,0.32
same,relative viability,UMC-11; first compound 2 µM,0.232
same,relative viability,NCI-H1975; first compound 0.02 µM,0.422
same,relative viability,NCI-H1975; first compound 0.2 µM,0.348
same,relative viability,NCI-H1975; first compound 0.6325 µM,0.387
same,relative viability,NCI-H1975; first compound 2 µM,0.32
same,relative viability,NCI-H2087; first compound 0.02 µM,0.484
same,relative viability,NCI-H2087; first compound 0.2 µM,0.39
same,relative viability,NCI-H2087; first compound 0.6325 µM,0.468
same,relative viability,NCI-H2087; first compound 2 µM,0.355
same,relative viability,NCI-H2009; first compound 0.02 µM,0.45
same,relative viability,NCI-H2009; first compound 0.2 µM,0.428
same,relative viability,NCI-H2009; first compound 0.6325 µM,0.389
same,relative viability,NCI-H2009; first compound 2 µM,0.334
same,relative viability,H3255; first compound 0.02 µM,0.354
same,relative viability,H3255; first compound 0.2 µM,0.33
same,relative viability,H3255; first compound 0.6325 µM,0.254
same,relative viability,H3255; first compound 2 µM,0.251
same,relative viability,NCI-H2085; first compound 0.2 µM,0.694
same,relative viability,NCI-H2085; first compound 0.6325 µM,0.809
same,relative viability,NCI-H2085; first compound 2 µM,0.667
same,relative viability,NCI-H23; first compound 0.02 µM,0.807
same,relative viability,NCI-H23; first compound 0.2 µM,0.631
same,relative viability,NCI-H23; first compound 0.6325 µM,0.917
same,relative viability,NCI-H23; first compound 2 µM,0.739
same,relative viability,HCC-827; first compound 0.02 µM,0.4
same,relative viability,HCC-827; first compound 0.2 µM,0.221
same,relative viability,HCC-827; first compound 0.6325 µM,0.134
same,relative viability,HCC-827; first compound 2 µM,0.144
same,relative viability,LXF-289; first compound 0.02 µM,0.546
same,relative viability,LXF-289; first compound 0.2 µM,0.486
same,relative viability,LXF-289; first compound 0.6325 µM,0.506
same,relative viability,LXF-289; first compound 2 µM,0.458
same,relative viability,PC-3 [JPC-3]; first compound 0.02 µM,0.49
same,relative viability,PC-3 [JPC-3]; first compound 0.2 µM,0.421
same,relative viability,PC-3 [JPC-3]; first compound 0.6325 µM,0.421
same,relative viability,PC-3 [JPC-3]; first compound 2 µM,0.339
same,relative viability,NCI-H1437; first compound 0.02 µM,0.375
same,relative viability,NCI-H1437; first compound 0.2 µM,0.345
same,relative viability,NCI-H1437; first compound 0.6325 µM,0.329
same,relative viability,NCI-H1437; first compound 2 µM,0.27
same,relative viability,LC-2-ad; first compound 0.02 µM,0.588
same,relative viability,LC-2-ad; first compound 0.2 µM,0.554
same,relative viability,LC-2-ad; first compound 0.6325 µM,0.652
same,relative viability,LC-2-ad; first compound 2 µM,0.546
same,relative viability,LCLC-103H; first compound 0.02 µM,0.337
same,relative viability,LCLC-103H; first compound 0.2 µM,0.354
same,relative viability,LCLC-103H; first compound 0.6325 µM,0.37
same,relative viability,LCLC-103H; first compound 2 µM,0.314
same,relative viability,NCI-H661; first compound 0.02 µM,0.282
same,relative viability,NCI-H661; first compound 0.2 µM,0.271
same,relative viability,NCI-H661; first compound 0.6325 µM,0.233
same,relative viability,NCI-H661; first compound 2 µM,0.236
same,relative viability,NCI-H2342; first compound 0.02 µM,0.702
same,relative viability,NCI-H2342; first compound 0.2 µM,0.529
same,relative viability,NCI-H2342; first compound 0.6325 µM,0.673
same,relative viability,NCI-H2342; first compound 2 µM,0.505
same,relative viability,COR-L23; first compound 0.02 µM,0.466
same,relative viability,COR-L23; first compound 0.2 µM,0.393
same,relative viability,COR-L23; first compound 0.6325 µM,0.481
same,relative viability,COR-L23; first compound 2 µM,0.449
same,relative viability,NCI-H2228; first compound 0.02 µM,0.345
same,relative viability,NCI-H2228; first compound 0.2 µM,0.327
same,relative viability,NCI-H2228; first compound 0.6325 µM,0.346
same,relative viability,NCI-H2228; first compound 2 µM,0.194
same,relative viability,ABC-1; first compound 0.02 µM,0.251
same,relative viability,ABC-1; first compound 0.2 µM,0.238
same,relative viability,ABC-1; first compound 0.6325 µM,0.231
same,relative viability,ABC-1; first compound 2 µM,0.215
same,relative viability,HCC-366; first compound 0.02 µM,0.694
same,relative viability,HCC-366; first compound 0.6325 µM,0.599
same,relative viability,HCC-366; first compound 2 µM,0.346
same,relative viability,SK-MES-1; first compound 0.02 µM,0.65
same,relative viability,SK-MES-1; first compound 0.2 µM,0.613
same,relative viability,SK-MES-1; first compound 0.6325 µM,0.613
same,relative viability,SK-MES-1; first compound 2 µM,0.634
same,relative viability,PC-14; first compound 0.02 µM,0.646
same,relative viability,PC-14; first compound 0.2 µM,0.441
same,relative viability,PC-14; first compound 0.6325 µM,0.256
same,relative viability,PC-14; first compound 2 µM,0.124
same,relative viability,HCC-15; first compound 0.02 µM,0.487
same,relative viability,HCC-15; first compound 0.2 µM,0.402
same,relative viability,HCC-15; first compound 0.6325 µM,0.417
same,relative viability,HCC-15; first compound 2 µM,0.329
same,relative viability,NCI-H1666; first compound 0.02 µM,0.562
same,relative viability,NCI-H1666; first compound 0.2 µM,0.566
same,relative viability,NCI-H1666; first compound 0.6325 µM,0.642
same,relative viability,NCI-H1666; first compound 2 µM,0.588
